As usually defined, the IC50 is the concentration needed to halve the response being measured. Read a high IC50 as a need for much substance.

The values that follow come from PMC3335822 (PLoS ONE, 2012).

The target in series [1] is T1, human EYA3 (Homo sapiens, UniProt Q99504).
T1 construct: residues 127–573 of NM_001990, isoform 1; His-GST (poly-histidine, glutathione-S-transferase) with TVMV protease site (cleaved yes); made in house
T1 sequence (Q99504 127-573): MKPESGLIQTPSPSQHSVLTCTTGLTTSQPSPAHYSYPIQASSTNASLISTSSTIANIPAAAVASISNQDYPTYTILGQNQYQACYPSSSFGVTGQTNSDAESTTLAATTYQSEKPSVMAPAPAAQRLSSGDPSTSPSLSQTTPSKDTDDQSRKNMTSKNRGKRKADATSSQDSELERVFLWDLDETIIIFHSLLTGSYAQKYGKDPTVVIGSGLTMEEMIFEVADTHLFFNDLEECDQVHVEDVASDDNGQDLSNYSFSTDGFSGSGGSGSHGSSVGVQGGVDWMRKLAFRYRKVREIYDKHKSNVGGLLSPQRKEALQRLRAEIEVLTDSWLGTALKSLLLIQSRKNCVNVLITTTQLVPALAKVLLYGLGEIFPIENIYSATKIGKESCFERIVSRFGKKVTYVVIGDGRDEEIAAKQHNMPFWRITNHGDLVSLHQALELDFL
As to the kind of experiment: pNPP hydrolysis by full-length EYA3. It counts as biochemical. An excerpt:
The catalytic domain (ED) of mouse Eyes Absent 3 (Eya3(223–510)) was purified as described before. Human Eyes Absent 3 isoform 2 (representing the major species identified in human cell lines by mass spectrometry and residues 127–573 of NM_001990, isoform 1) was sub-cloned into pDEST565 to express a poly-histidine- Glutathione-S-transferase (His-GST) tagged fusion protein with a TVMV protease site. The protein was purified by glutathione-S-transferase affinity chromatography followed by TVMV cleavage, Ni-NTA chromatography, and finally size exclusion chromatography. […]
(§1) Compounds were dissolved in DMSO and diluted as needed. […] Reactions were incubated at 30°C for 30 minutes and quenched with 100 mM EDTA pH 10. IC50 values were then calculated directly from regression curves using PRISM. All reported values are the mean of two independent experiments.

Series [2] addresses T2, Eya3(ED) (Mus musculus, UniProt P97480).
T2 construct: The catalytic domain (ED) of mouse Eyes Absent 3 (Eya3(223–510)) was purified; made in house
T2 sequence (P97480 223-510): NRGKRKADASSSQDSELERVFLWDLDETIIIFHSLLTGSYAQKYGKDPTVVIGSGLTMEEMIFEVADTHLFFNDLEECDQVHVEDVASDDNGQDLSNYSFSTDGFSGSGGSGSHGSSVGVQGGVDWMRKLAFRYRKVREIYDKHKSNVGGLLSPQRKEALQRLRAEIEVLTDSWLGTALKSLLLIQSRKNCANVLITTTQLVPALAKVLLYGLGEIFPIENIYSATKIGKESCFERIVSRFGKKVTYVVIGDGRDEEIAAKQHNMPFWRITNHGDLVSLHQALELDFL
As to the kind of experiment: pNPP hydrolysis by the catalytic domain of Eya3. The format is biochemical.
From the text: The catalytic domain (ED) of mouse Eyes Absent 3 (Eya3(223–510)) was purified as described before. Human Eyes Absent 3 isoform 2 (representing the major species identified in human cell lines by mass spectrometry and residues 127–573 of NM_001990, isoform 1) was sub-cloned into pDEST565 to express a poly-histidine- Glutathione-S-transferase (His-GST) tagged fusion protein with a TVMV protease site. The protein was purified by glutathione-S-transferase affinity chromatography followed by TVMV cleavage, Ni-NTA chromatography, and finally size exclusion chromatography.
The NCI Diversity Set II was obtained from the NCI in 96-well trays from the NIH Molecular Libraries Program and stored as 10 mM stocks in DMSO. An initial manual screen was conducted using the previously described p-nitrophenylphosphate assay and mouse Eya3(223–510) in a reaction mixture containing 20 mM MES pH 6, 2 mM MgCl2, 125 μM inhibitor, 3.4 mM para-nitrophenol phosphate (pNPP) and 0.01 μg/µL enzyme.
as §1

The subject of series [3] is HUVECs. As to the kind of experiment: HUVEC transwell migration. To be noted: 5 μM. The format is cell-based, human. As for the experimental part: (§2) Human umbilical vein endothelial cells (HUVECs) were purchased from Lonza (Walkersville, MD) and maintained in the endothelial cell growth medium (PromoCell, Heidelberg, Germany), under a 5% CO2 atmosphere. MCF10A cells from ATCC were stably transfected with either pcDNA 3.2/V5-DEST (vector control), V5-EYA2 or V5-EYA2(mut). Transwell migration experiments were performed as previously described.

Series [4] relates to MCF10A-EYA2 cells. In words: Transwell migration of MCF10A cells over-expressing EYA2. The format is cell-based. To be noted: for effect on migration of MCF10A(EYA2) cells: 7.5 μM. How it is done: as §2
Details of series [5]: method as in PMID 20214587. To be noted: cited from earlier work.
The target of series [6] is T3, PTP1B (Homo sapiens, UniProt P18031).
T3 construct: made in house
T3 sequence (P18031 1-435): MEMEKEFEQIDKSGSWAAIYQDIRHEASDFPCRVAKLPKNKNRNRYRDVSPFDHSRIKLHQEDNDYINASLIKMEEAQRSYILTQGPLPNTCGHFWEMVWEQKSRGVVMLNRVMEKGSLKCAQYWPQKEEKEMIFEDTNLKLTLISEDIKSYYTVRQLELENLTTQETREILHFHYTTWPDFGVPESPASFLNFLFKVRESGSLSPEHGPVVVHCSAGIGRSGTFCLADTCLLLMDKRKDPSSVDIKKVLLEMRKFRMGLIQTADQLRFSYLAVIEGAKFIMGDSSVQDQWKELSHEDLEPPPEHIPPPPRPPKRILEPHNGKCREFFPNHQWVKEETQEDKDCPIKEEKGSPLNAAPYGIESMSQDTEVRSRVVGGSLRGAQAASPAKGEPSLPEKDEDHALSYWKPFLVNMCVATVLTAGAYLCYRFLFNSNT
In words: pNPP hydrolysis by PTP1B. It counts as biochemical. To be noted: substrate pNPP. How it is done: The catalytic domain of human Eyes Absent 2 was similarly sub-cloned as a poly-histidine fusion construct in the vector pDEST-527. Fusion protein was purified by Ni-NTA chromatography and followed by size-exclusion chromatography over a Superdex-75 column. The relative purity of protein samples was determined using SDS-PAGE. PTP1B was purified as described previously.
as §1

The conditions of series [7]: cited from earlier work.

Take `CCc1oc2ccccc2c1C(=O)c1cc(Br)c(O)c(Br)c1` [Compound 1, Benzbromarone]: the “inhibitory effect in the presence of detergent” value in series [1] (0.01% Triton X-100) is given as “inhibitory effect was retained”. The “mode of inhibition of Eya3(ED)” value in series [2] (pNPP substrate titration) was “uncompetitive inhibitor”. The “effect on HUVEC cell motility” value in series [3] is listed as “attenuated HUVEC cell motility”. In addition, the “effect on migration of MCF10A(EYA2) cells” value in series [4] is “significantly inhibited cell migration”. Further, the hepatotoxicity result in series [5] is recorded as “reported hepatotoxicity”. For the same molecule, in series [6], the concentration for half-maximal inhibition (IC50) was determined as 53.8 µM. In series [7], the half-life entry is “about 3 hours”.
In the case of `CCc1oc2ccccc2c1C(=O)c1ccc(O)cc1` [Compound 1a, Benzarone], the IC50 is 17 µM in series [1] (full-length human EYA3, substrate pNPP); 19.2 µM in series [2] (substrate pNPP 3.4 mM, pH 6, 30°C, 30 minutes); over 150 µM in series [6]. Moreover, in series [3], the “effect on HUVEC cell motility” value is listed as “attenuated HUVEC cell motility”. In addition, in series [4] (1 μM (lowest concentration tested), MCF10A-EYA2), the “reduction of cell motility” value was “over 50%”. Also, the “effect on migration of MCF10A(EYA2) cells” value in series [4] was “significantly inhibited cell migration”. The hepatotoxicity entry in series [5] is reported as “reported hepatotoxicity”. Also, the half-life entry in series [7] is given as “about 3 hours”.
